{"source": "patent US20120035531A1", "about": "“ON-DEMAND AND REVERSIBLE DRUG RELEASE BY EXTERNAL CUE” (PRESIDENT AND FELLOWS OF HARVARD COLLEGE, priority 2009, published 2012)", "key": {"MCF7 breast cancer cells": {"system": "MCF7 breast cancer cells", "assay": "Bioactivity of ultrasound-released Mitoxantrone: MCF7 cell viability", "assay_type": "cell-based", "settings": "24 hours, ultrasound-released vs fresh Mitoxantrone solution 0.1 to 20 μg/mL", "experimental": "The bioactivity of the released Mitoxantrone in example 1 was studied by incubating MCF7 breast cancer cells in the Mitoxantrone solution, and measuring the cell viability after 24 hours. Fresh Mitoxantrone solutions (unmixed with polymer) with various concentrations ranging from 0.1 to 20 μg/mL were also used to incubate the same number of MCF7 breast cancer cells."}, "[1]": {"assay": "In vitro release of encapsulated Mitoxantrone from alginate hydrogel with ultrasound", "assay_type": "physicochemical", "experimental": "Alginate hydrogels containing 0.825 mg/mL of Mitoxantrone were prepared by mixing alginate aqueous solution with slurries of CaSO4, to a final concentration of 50 mM Ca^2+ and 2% alginate (w/w) polymer. The gel was cast between two glass slides and cut into discs of approximately 10 mm diameter and 2 mm thickness. Thereafter, hydrogels were swollen overnight in the commercially available Dulbecco's Modified Eagle's Medium (DMEM). Hydrogel disks so prepared were next placed in a 15 mL plastic tube with 5 ml of DMEM. One group of the sample hydrogels were subjected to low-frequency ultrasound with frequency of 20 KHz and intensity of 1 watt for 5 min per hour. A further group comprising control hydrogels, similarly prepared, were not subjected to any stimulation. FIGS. 1A and 1B show the power profiles of ultrasound on the two groups of hydrogels."}}}
{"compound": "O=C1c2c(O)ccc(O)c2C(=O)c2c(NCCNCCO)ccc(NCCNCCO)c21", "note": "[Mitoxantrone]", "values": [{"measurement": "cell viability", "setting": "MCF7 breast cancer cells", "value": "reduces cell viability by the same amount as a fresh Mitoxantrone solution of equivalent concentration"}, {"measurement": "level of enhanced release rates across ultrasound pulses", "setting": "[1]; 20 KHz, 1 watt, 5 min per hour", "value": "all on the same level"}, {"measurement": "increase of cumulative release amount", "setting": "[1]; 5 min of ultrasound per hour, 20 KHz, 1 watt, vs control hydrogels", "value": "~70", "unit": "%"}, {"measurement": "increase of release rates by ultrasound stimulation", "setting": "[1]; alginate hydrogel 0.825 mg/mL Mitoxantrone in DMEM, 20 KHz, 1 watt, 5 min per hour, vs no stimulation", "value": "approximately 10 times"}, {"measurement": "rate of release after removing the ultrasound", "setting": "[1]; alginate hydrogel in DMEM", "value": "decayed to negligible levels"}]}
